Patent US20180136197A1, “CELL-FREE METHODS OF DETECTING BIOACTIVE LIGANDS” (Brigham Young University, priority 2016, published 2018)

Tested on: E. coli-based CFPS of GFP
Assay: Cell-free protein synthesis (CFPS) of model protein GFP in presence of additives
Type: biochemical
Experimental: CFPS reactions took place in a 96-well plate at 37° C. for 2 hours. PANOxSP was used as an energy source (25% reaction volume of the cell extract, 1.2 nM plasmid, 12 to 15 mM magnesium glutamate, 1 mM 1,4-diaminobutane, 1.5 mM Spermidine, 33.3 mM phosphoenolpyruvate, 10 mM ammonium glutamate, 175 mM potassium glutamate, 2.7 mM potassium oxalate, 0.33 mM nicotinamide adenine dinucleotide, 0.27 mM coenzyme A, 1.2 mM ATP, 0.86 mM CTP, 0.86 mM GTP, 0.86 mM UTP, 0.17 mM folinic acid, 2 mM of all canonical amino acids with the exception of glutamic acid^81. Expressed protein was quantified by addition of 5 μM radiolabeled (U-14C) leucine (PerkinElmer, Waltham, Mass.) to the CFPS reaction. Varying concentrations (0 to 200 μM) of ligands were added to the CFPS reaction. In case of human sample testing, 20% and 10% of whole blood and urine (v/v), respectively were added to the CFPS in addition to the EDC ligands.
Initially, we hypothesized that urea is the main component to hinder protein synthesis in urine samples. The urea concentration in human samples is in a range of 0.1 to 0.8 M^88-89 with the average being 0.22 M^90. To understand the effect of urea on CFPS, we synthesized the model protein GFP in the presence of urea at concentrations between 0.001 to 1 M (FIG. 23). […] Error bars represent one standard deviation for n=3. […] Even reactions with 0.5 M urea retained 40% protein synthesis capability.
We next hypothesized that RNase activity hinders protein synthesis in both urine and blood samples^91,92,93. To test this hypothesis, we performed CFPS of GFP in the presence of urine and blood, and added murine RNase inhibitor as shown in FIGS. 24A and 24B. FIGS. 24A and 24B show the effect of RNase inhibitor on CFPS of GFP in the presence of urine (top) and blood (bottom). The lighter bars in both graphs represent the improvements in protein production in the presence of urine or blood with the addition of RNase inhibitor. The error bars represent one standard deviation for n=3. […] For instance, for 20% by volume urine sample, the GFP production yield increased from less than 10% to more than 30%. The improvement was more significant for blood samples, as 10% by volume blood eliminated protein synthesis, but even 45% by volume blood in CFPS containing RNase inhibitor retained 50% protein synthesis yield. […] Adding RNase inhibitors to CFPS reactions facilitates synthesis of sufficient biosensor protein to detect ligands in up to 25% and 45% by volume urine and blood, respectively. These higher volume percentages help to detect lower concentrations of ligands in the samples.

Molecule	effect on CFPS performance (0.1 M urea)	retained protein synthesis capability (0.5 M urea)	GFP production yield (20% by volume urine, with RNase inhibitor (less than 10% without))	retained protein synthesis yield (45% by volume blood, with RNase inhibitor)
NC(N)=O [urea]	doesn't have a significant effect	40%	–	–
RNase inhibitor: murine RNAse inhibitor purchased from New England Biolabs, added to CFPS reactions (protein, UniProt Q91VI7 1-456, looked up) Ribonuclease inhibitor: MSLDIQCEQLSDARWTELLPLIQQYEVVRLDDCGLTEVRCKDISSAVQANPALTELSLRTNELGDGGVGLVLQGLQNPTCKIQKLSLQNCGLTEAGCGILPGMLRSLSTLRELHLNDNPMGDAGLKLLCEGLQDPQCRLEKLQLEYCNLTATSCEPLASVLRVKADFKELVLSNNDLHEPGVRILCQGLKDSACQLESLKLENCGITAANCKDLCDVVASKASLQELDLSSNKLGNAGIAALCPGLLLPSCKLRTLWLWECDITAEGCKDLCRVLRAKQSLKELSLASNELKDEGARLLCESLLEPGCQLESLWIKTCSLTAASCPYFCSVLTKSRSLLELQMSSNPLGDEGVQELCKALSQPDTVLRELWLGDCDVTNSGCSSLANVLLANRSLRELDLSNNCMGGPGVLQLLESLKQPSCTLQQLVLYDIYWTNEVEEQLRALEEERPSLRIIS	–	–	more than 30%	50%
